Measurements as given in patent publication US20060286575A1, “MCL-1 quadruplex nucleic acids and uses thereof” (Cylene Pharmaceuticals, Inc., priority 2005, published 2006).

How the values were obtained:
[1] = system: MCL-1 wildtype quadruplex sequence (MCL-wt); test: Competition assay (Taq polymerase stop reaction as reporter), competitor MCL-1 wildtype quadruplex; type: binding; settings: test compound at its IC50 concentration
From the text: (§1) An example of an affinity competition assay, described hereafter, is useful for determining the relative binding affinities of a test molecule between different types of nucleic acid structures, using the ability of the test molecule to bind and stabilize a specific G-quadruplex structure in a Taq polymerase stop reaction utilized as a reporter system.
(§2) The assay first involves establishing the IC50 of a test molecule in the polymerase arrest assay described above using the fluorescent-labeled oligonucleotide primer. The IC50 concentration is defined as the concentration of test molecule required that yields a 1:1 ratio of quadruplex arrest to full-length product.
(§3) A competitor nucleic acid sequence is titrated into the reaction such that each individual reaction contains the test compound at it's IC50 concentration and an increasing concentration of competitor nucleic acid (increasing from zero). The competitor nucleic acid, may be a short duplex or single strand oligonucleotide, a plasmid DNA sequence, an RNA sequence, or a nucleic acid sequence capable of forming a secondary structure, such as a G-quadruplex. […] The decrease in quadruplex arrest product, relative to the full-length product is measured as a function of concentration of added competitor nucleic acid. Thus the relative binding affinities to different competitor nucleic acid structures can be determined graphically. […]

[2] = system: extended MCL-1 sequence (insert 46); test: Competition assay (Taq polymerase stop reaction as reporter), competitor extended MCL-1 sequence insert 46; type: binding; settings: FIG. 2
From the text: as §1, §2, §3

[3] = system: extended MCL-1 sequence (insert 58); test: Competition assay (Taq polymerase stop reaction as reporter), competitor extended MCL-1 sequence insert 58; type: binding; settings: FIG. 2
From the text: as §1, §2, §3

MCL-1 mRNA [4] = test: MCL-1 mRNA expression in D556 medulloblastoma cells (Affymetrix U133+2.0 gene chip); type: cell-based; settings: 19 hours
Method: (§4) FIG. 3 illustrates Mcl-1 mRNA expression levels in medulloblastoma cells treated with CX-3543. The cells were treated at 0.1 and 1 μM CX-3543 for 19 hours, as measured by Affymetrix U133+2.0 47,000 gene chip.
(§5) D556 medulloblastoma cells were exposed to 1 uM Compound A-1 for 19 hours. […] The level of apoptosis induced in D556 as measured by Annexin V staining was about 5.5-fold higher than in DMSO-treated cells, as compared to about 1.9-fold in DAOY cells. The relative amount of down-regulation of MCL-1 (approximately 14-fold compared to about 3.2-fold) correlates with the relative level of apoptosis induction (about 5.5-fold as compared to about 1.9-fold).

MCL-1 mRNA [5] = test: MCL-1 mRNA expression in DAOY medulloblastoma cells; type: cell-based; settings: 1 uM, 19 hours
Method: as §4, §5

[6] = system: D556 medulloblastoma cells; test: Apoptosis induction by Annexin V staining in D556 cells; type: cell-based
Method: (§6) FIG. 4 depicts the induction of apoptosis following treatment with CX-3543.
as §5

[7] = system: DAOY medulloblastoma cells; test: Apoptosis induction by Annexin V staining in DAOY cells; type: cell-based
Method: as §6, §5

MCL-1 protein = MCL-1 protein levels in cells contacted with compound; type: cell-based; settings: expected from the mRNA and apoptosis results
Method: as §5

- binding to the MCL-1 sequence shown in FIG. 2 [1]: binds
- binding to extended MCL-1 sequence insert 46 compared to the wildtype sequence [2]: comparably higher
- binding to extended MCL-1 sequence insert 58 compared to the wildtype sequence [3]: comparably higher
SMILES: CN1CCC[C@H]1CCNC(=O)c1cn2c3c(c(N4CCC(c5cnccn5)C4)c(F)cc3c1=O)Oc1cc3ccccc3cc1-2 (stereo partly shown) [Compound A-1]
- rank of Mcl-1 among genes with statistically significant change relative to DMSO control (MCL-1 mRNA [4]; D556 cells, 1 μM, out of more than 500 genes): eighth most highly down-regulated gene
- MCL-1 mRNA down-regulation (MCL-1 mRNA [4]; D556 medulloblastoma cells, 1 uM): approximately 14 fold
- MCL-1 mRNA down-regulation (MCL-1 mRNA [5]): approximately 3.2 fold
- level of apoptosis induced, relative to DMSO-treated cells ([6]; D556 cells): about 5.5 fold
- apoptosis induction, D556 compared with DAOY ([6]; FIG. 4): greater effect of CX-3543 on D556 than on DAOY
- level of apoptosis induced, relative to DMSO-treated cells [7]: about 1.9 fold
- MCL-1 protein levels (MCL-1 protein): decreased
